# Patent US20140378395A1, “Peptides for the Treatment of Hearing” (13Therapeutics, Inc., priority 2011, published 2014)
# Non-standard residues stand in square brackets, D forms with d. No end group written: not given here.
# Legend:
# [1] = system: TNF-α secretion from RAW264.7 cells; test: Inhibition of LPS-induced TNF-α secretion from RAW264.7 cells (ELISA); assay type: cell-based, murine; settings: 1 ng/ml LPS, 4 hours
# Method: (§1) RAW264.7 cells were plated at 1.5×10^5 cells/well-3×10^5 cells/well in 48-well plates. After 24 hours, the cells were incubated with peptides at various concentrations at room temperature in triplicate either before, simultaneous with, or after activation with various PAMPs for 18 hours. Cell-free supernatants were analyzed for cytokines by ELISA, in quadruplicate. RAW264.7 cells were stimulated with either CpG-ODN (1 μg/ml or 1.25 μg/ml), LPS (about 1 ng/ml), Poly (I:C) (about 10 μg/ml), flagellin (about 5 ng/ml), or zymosan (about 10 μg/ml). Dose response curves were done with each PAMP to determine optimal stimulation concentration. For CpG-ODN stimulation, cells were incubated for 4 hours at 37° C., supernatants collected, and TNF-α measured by ELISA. Any cytokine involved in inflammatory disease mediated toll receptor signaling can be measured using similar assays.
# (§2) Inhibition of TNF-α secretion by various T-peptides was examined. RAW264.7 cells were plated at 3×10^5 cells/well in 48-well plates. After 24 h the cells were incubated with peptide at various concentrations at room temperature in triplicate for 15 minutes and then stimulated with 1.25 ug/ml CpG-ODN or 1 ng/ml LPS. Cells were then incubated for 4 hours at 37° C., supernatants collected, and TNF-α measured by ELISA. Percent inhibition was calculated by comparing TNF-α secretion from cells incubated with peptide to control cells with no peptide treatment. The inhibitive effects of peptides T3 (SEQ ID NO: 319), T11 (SEQ ID NO: 327), T21 (SEQ ID NO: 337), T36 (SEQ ID NO: 352), T37 (SEQ ID NO: 353), T51 (SEQ ID NO: 367), and T52 (SEQ ID NO: 368) were compared to inhibition by an analogue of P13 (SEQ ID NO: 369) having a sequence of nine arginine residues at the C-terminus (P13-R^9 (SEQ ID NO: 378)). (Table 4).
# [2] = system: TNF-α secretion from RAW264.7 cells; test: Inhibition of CpG-ODN-induced TNF-α secretion from RAW264.7 cells (ELISA); assay type: cell-based, murine; settings: for activity compared with P13 (inhibition of TNF-α after stimulation of RAW264.7 cells with CpG): SAR, versus P13; for Percent Inhibition of TNF-α secretion, CpG Stimulation / Inhibition of TNF-α secretion (percent inhibition) / Percent Inhibition of TNF-α secretion: RAW264.7, 4 hours; for Percent Inhibition of TNF-α secretion, CpG Stimulation: 1.25 ug/ml CpG-ODN; for Inhibition of TNF-α secretion (percent inhibition) / Percent Inhibition of TNF-α secretion: 1 μg/ml CpG-ODN
# Method: as §1
# The effect of several peptides on TNF-α secretion from RAW264.7 cells in response to stimulation by CpG-ODN was studied. Each peptide was initially tested at 3 concentrations, 37 μM, 22.2 μM, and 11.1 μM. […] The peptides were then tested at 11.1 μM, 7.4 μM, and 3.7 μM (Table 3). […] Cell viability was examined for each peptide at the concentrations tested for TNF-α inhibition.
# as §2
# C3H/HeJ mice = test: Topical treatment in chronic otitis media (COM) model, ABR; assay type: in vivo, mouse
# BALB/c mice [3] = test: LPS-induced septic shock model, pro-inflammatory mediators; assay type: in vivo; settings: mouse model
# Method: BALB/c mice are injected i.p. with PBS, LPS at about 100 μg/mouse/250 μl, or about 100 μg LPS plus various doses of peptides. Serum is collected at about 2 and about 6 hours after treatment and evaluated for the pro-inflammatory cytokines MIP-2 and TNF-α by ELISA, and for soluble ICAM-1.
# [4] = system: toll-like receptor-dependent signaling; test: Cytokine secretion / signaling in response to TLR activation in vitro; assay type: cell-based
# Method: as §1
# BALB/c mice [5] = test: Middle ear inflammation: heat-inactivated S. pneumoniae plus peptide injected into the middle ear, histology after 3 days; assay type: in vivo, mouse; settings: single dose with heat-inactivated S. pneumoniae; paired t-tests
# [6] = system: TNF-α secretion from RAW264.7 cells; test: Inhibition of CpG-ODN-induced TNF-α secretion from RAW264.7 cells (ELISA); assay type: cell-based, murine; settings: peptide 3.1 μM (Table 3), 1 μg/ml CpG-ODN, 4 hours
# BALB/c mice [7] = test: Assay for crossing the tympanic membrane by FITC-labeled peptide; assay type: in vivo, mouse; settings: 10 μg/30 μl dropped on ear, 10 minutes; AOM ears; fluorescent microscopy
# Method: Three BALB/c mice at 8-12 weeks of age were anesthetized with ketamine (100 mg/kg) and xylazine (20 mg/kg) prior to administration of bacteria. A ventral midline incision was made in the neck, and the bulla exposed after blunt dissection. The middle ear was inoculated through the bony wall with approximately 3.5 μL of a bacterial suspension (heat inactivated S. pneumoniae 10^10 CFU/ml) with a thin needle. Both the right and left ears received bacteria by bulla injection.
# After 24 hours, animals received an otoscopic exam using an operating microscope. Mice were anesthetized as described above, and the tympanic membrane was inspected for the presence or absence of the following three criteria for acute otitis media (AOM): 1) middle ear effusion behind the tympanic membrane; 2) change in color of the tympanic membrane from clear to red or white (indicating inflammation and/or purulence in the middle ear); and 3) change in position of the tympanic membrane from neutral to bulging or retracted.
# Four ears met the criteria for AOM. FITC labeled peptide P13-R^9 (SEQ ID NO: 378) (10 μg/30 μl) was dropped onto the middle ear. The peptide was allowed to absorb for 10 minutes. After 10 minutes, the external ear canal was flushed twice, and blotted to get rid of any remaining peptide. […]
Substance,"Percent Inhibition of TNF-α secretion, LPS Stimulation ([1]; peptide 7.4 uM)","Percent Inhibition of TNF-α secretion, LPS Stimulation ([1]; peptide 11.1 uM)","Percent Inhibition of TNF-α secretion, LPS Stimulation ([1]; peptide 22.2 uM)",Inhibition of TNF-α secretion (percent inhibition) [6],Inhibition of TNF-α secretion (percent inhibition) ([2]; peptide 7 μM (Table 3)),Inhibition of TNF-α secretion (percent inhibition) ([2]; peptide 11 μM (Table 3)),Percent Inhibition of TNF-α secretion ([2]; peptide 11.1 μM),Percent Inhibition of TNF-α secretion ([2]; peptide 22.2 μM),Percent Inhibition of TNF-α secretion ([2]; peptide 37 μM),other results
AIVKLTVYDCIRRRRRRRRR [T3-R^9],33%,65%,77%,–,–,–,–,–,–,"activity compared with P13 (inhibition of TNF-α after stimulation of RAW264.7 cells with CpG) [2]: superior activity; Percent Inhibition of TNF-α secretion, CpG Stimulation ([2]; peptide 7.1 μM): 85%; Percent Inhibition of TNF-α secretion, CpG Stimulation ([2]; peptide 11.1 μM): 92%; Percent Inhibition of TNF-α secretion, CpG Stimulation ([2]; peptide 22 μM): 99%"
"D-Asp-D-Ile-D-Val-D-Lys-D-Leu-D-Thr-D-Val-D-Tyr-D-Asp-D-Cys-D-Ile ([dD][dI][dV][dK][dL][dT][dV][dY][dD][dC][dI]) [D-P13, stereoisomer of P13 containing all D-amino acid residues]",–,–,–,–,–,–,–,–,–,improvement of hearing thresholds across all frequencies (C3H/HeJ mice; week 2 post-treatment): approximately 20 db; hearing thresholds by ABR across all four frequencies (C3H/HeJ mice; weeks 1 and 2 post-treatment): demonstrated efficacy
DIVKLTVYACIRRRRRRRRR [T11-R^9],68%,81%,91%,–,–,–,–,–,–,activity compared with P13 (inhibition of TNF-α after stimulation of RAW264.7 cells with CpG) [2]: superior activity
DIVKLTVYDCIRRRRRRRRR [P13-R^9],0%,13%,69%,–,–,–,–,–,–,"pro-inflammatory mediators in LPS-induced septic shock (BALB/c mice [3]): reduce pro-inflammatory mediators; cytokine secretion from cell activation initiated independent of TLR stimulation [4]: no effect; cytokine secretion in response to TLR activation ([4]; TLR ligands individually or in combination): effectively inhibited; Percent Inhibition of TNF-α secretion, CpG Stimulation ([2]; peptide 7.1 μM): 32%; Percent Inhibition of TNF-α secretion, CpG Stimulation ([2]; peptide 11.1 μM): 65%; Percent Inhibition of TNF-α secretion, CpG Stimulation ([2]; peptide 22 μM): 86%; bacterial-induced middle ear inflammation (amount of fluid, infiltrating cell number, thickness of the tympanic membrane) (BALB/c mice [5]): dramatically reduced"
EMFTILEEYFMYRGLRRRRRRRRR (C-terminal nona-arginine (R9)) [80(S15)-R^9],–,–,–,57%,68%,81%,78%,87%,91%,–
EMFTILEEYFMYRGRRRRRRRRR (C-terminal nona-arginine (R9)) [81(S16)-R^9],–,–,–,26%,53%,70%,84%,86%,90%,–
EMFTILEEYFMYRRRRRRRRR (C-terminal nona-arginine (R9)) [83(S17)-R^9],–,–,–,0%,44%,57%,72%,82%,89%,–
"FITC-labeled P13-R^9: FITC (Fluorescein isothiocyanate) labeled peptide P13-R^9 (SEQ ID NO: 378) (DIVKLTVYDCIRRRRRRRRR; also: FITC label, position not given here)",–,–,–,–,–,–,–,–,–,crossing of the tympanic membrane and association with cells in middle ear fluid (BALB/c mice [7]): crosses the tympanic membrane
FTILEEYFMYRGLLGLRIKYGRLFNEIRRRRRRRRR (C-terminal nona-arginine (R9)) [44(S3)-R^9],–,–,–,0%,24%,78%,91%,96%,95%,–
MFTILEEYFMYRGLLGLRIKYGRLFNEIRRRRRRRRR (C-terminal nona-arginine (R9)) [43(S2)-R^9],–,–,–,0%,51%,70%,91%,94%,100%,–
